The record followed here is patent publication US20260138976A1 (Hoffmann-La Roche Inc., priority 2022, published 2026).

Assay [1] deals with T1, DGKζ (hDGKzeta(1-928)-N-His) (Homo sapiens, UniProt Q13574).
T1 construct: hDGKzeta(1-928)-N-His; His (N); made in house; host or cells: Sf21 insect cells (baculovirus)
The assay is described as follows: In vitro DGK inhibition assay, DGKzeta ADP Glo (in house). The assay is classed as biochemical. The following applies: 2 nM DGKζ, 50 μM ATP, 125 uM DLG in liposomes, 1 hour reaction. The method in brief: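 Full-length His-tagged human DGKα (4 nM) or DGKζ (2 nM), expressed in Sf21 cells, phosphorylated 125 µM DLG in PS/PC liposomes with ATP at 25 µM (α) or 50 µM (ζ) for 1 h. ADP was measured by ADP-Glo luminescence. Compounds were tested as 11-point 1:3 series in 2% DMSO.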
For orientation: ADP-Glo turns the ADP formed in a reaction into a luminescent signal.

The next assay concerns the target T2, DGK ζ kinase (Homo sapiens, UniProt Q13574).
T2 construct: purchased Reaction Biology Corp. (contract assay service)
The assay is described as follows: DGKzeta kinase ADP Glo assay run by Reaction Biology Corp. Type of assay: biochemical. The following applies: 2 nM kinase, 50 µM ATP, 500 μM DLG, 10-dose duplicate.

In a further assay the test system is primary human T-cells. The assay is described as follows: IL2 secretion measurements (24 h, CD3-stimulated T-cells, PBS counter screen). The assay is classed as cell-based. The following applies: for Emax IL2 (% activation): CD3 condition, normalised to DMSO (neutral) and 20 μM reference compound A1 = 100%; for EC50: Homo sapiens, T-cell, CD3-stimulated primary human T-cells, IL2 secretion, fitted sigmoidal curve, read-out: Tcell IL2 CD3 EC50. The method in brief: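 Expanded primary human T-cells (100k/well) were plated on anti-CD3-coated or PBS-only plates with compound in a 5–6 point dose response (top 20 or 10 μM final, 3.333-fold, 0.2% DMSO). IL-2 in 24 h supernatants was quantified by ProQuantum immunoassay or ELISA. Values were normalized to DMSO and 20 μM reference compound A1 (100%), giving EC50 and Emax.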
(In general: Counterscreens check selectivity or assay interference.)

The structures appear in SMILES notation.

The term IC50 denotes the concentration needed to halve the response being measured. A high value points to a need for much substance. The EC50 is the concentration giving half of the maximal effect.

T1 sequence (Q13574 whole entry): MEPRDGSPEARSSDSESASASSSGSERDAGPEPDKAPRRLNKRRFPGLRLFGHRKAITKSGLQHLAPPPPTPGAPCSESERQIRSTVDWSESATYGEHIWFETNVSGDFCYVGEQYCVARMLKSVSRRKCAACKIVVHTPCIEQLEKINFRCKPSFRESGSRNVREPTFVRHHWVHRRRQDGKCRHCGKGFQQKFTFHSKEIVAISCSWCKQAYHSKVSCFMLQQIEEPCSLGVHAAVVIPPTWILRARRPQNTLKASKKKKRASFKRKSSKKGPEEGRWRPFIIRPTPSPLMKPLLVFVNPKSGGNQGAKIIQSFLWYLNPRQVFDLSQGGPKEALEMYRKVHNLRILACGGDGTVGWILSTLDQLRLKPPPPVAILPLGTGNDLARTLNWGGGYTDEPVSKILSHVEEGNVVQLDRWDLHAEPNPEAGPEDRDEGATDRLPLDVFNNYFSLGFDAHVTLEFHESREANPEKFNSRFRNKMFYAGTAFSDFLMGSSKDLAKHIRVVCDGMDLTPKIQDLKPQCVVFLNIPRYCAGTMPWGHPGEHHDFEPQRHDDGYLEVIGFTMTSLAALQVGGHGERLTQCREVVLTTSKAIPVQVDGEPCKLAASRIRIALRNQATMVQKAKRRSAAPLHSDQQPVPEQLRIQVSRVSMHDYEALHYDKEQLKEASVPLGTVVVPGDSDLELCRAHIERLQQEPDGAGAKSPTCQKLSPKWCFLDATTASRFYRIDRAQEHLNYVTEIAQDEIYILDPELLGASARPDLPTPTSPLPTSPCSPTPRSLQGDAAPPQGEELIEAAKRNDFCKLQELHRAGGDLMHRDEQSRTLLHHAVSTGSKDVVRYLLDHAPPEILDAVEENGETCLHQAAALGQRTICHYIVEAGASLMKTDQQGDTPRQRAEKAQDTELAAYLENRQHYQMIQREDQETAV
T2 sequence (Q13574 whole entry): as above

Molecule `C[C@](N)(c1nnc(-c2ccc3c(c2)N(Cc2ccc(-c4noc(C(F)(F)F)n4)cc2)C(=O)[C@@H](N)CS3(=O)=O)o1)C(F)(F)F` [Example 53, (3R)-3-amino-7-[5-[(1S)-1-amino-2,2,2-trifluoro-1-methyl-ethyl]-1,3,4-oxadiazol-2-yl]-1,1-dioxo-5-[[4-[5-(trifluoromethyl)-1,2,4-oxadiazol-3-yl]phenyl]methyl]-2,3-dihydro-1λ^6,5-benzothiazepin-4-one] yielded an IC50 in assay [1] of 2420 nM. This molecule had an IC50 at DGK ζ kinase of 92.8 nM. In the assay with primary human T-cells, the “Emax IL2 (% activation)” value worked out at 187 % activation and the EC50 was 2070 nM.

In assay [1], `N[C@H]1CS(=O)(=O)c2ccc(-c3nnc(N4CCOC(F)(F)C4)o3)cc2N(Cc2ccc(-c3noc(C(F)(F)F)n3)cc2)C1=O` [Example 78, (3R)-3-amino-7-[5-(2,2-difluoromorpholin-4-yl)-1,3,4-oxadiazol-2-yl]-1,1-dioxo-5-[[4-[5-(trifluoromethyl)-1,2,4-oxadiazol-3-yl]phenyl]methyl]-2,3-dihydro-1λ^6,5-benzothiazepin-4-one] displayed an IC50 of 2530 nM. Besides, the IC50 against DGK ζ kinase was determined as 25.4 nM. For the same molecule, in the assay with primary human T-cells, the “Emax IL2 (% activation)” value is recorded as 216 % activation and the EC50 turned out to be 2340 nM.

In the case of `COc1ccc(-c2ccc(CN3C(=O)[C@@H](N)CS(=O)(=O)c4ccc(-c5nnc(N(C)CC(F)(F)F)o5)cc43)cc2)cc1` [Example 81, (3R)-3-amino-5-[[4-(4-methoxyphenyl)phenyl]methyl]-7-[5-[methyl(2,2,2-trifluoroethyl)amino]-1,3,4-oxadiazol-2-yl]-1,1-dioxo-2,3-dihydro-1λ^6,5-benzothiazepin-4-one], the figures for the IC50 (in assay [1]; against DGK ζ kinase) were 2450 nM and 53.5 nM, respectively. Moreover, the “Emax IL2 (% activation)” value in the assay on primary human T-cells was found to be 66 % activation. Also, the EC50 in the assay with primary human T-cells was 523 nM.

For `CC(C)(C#N)c1nnc(-c2ccc3c(c2)N(Cc2ccc(-c4ccc(OC(F)(F)F)cn4)cc2)C(=O)[C@@H](N)CS3(=O)=O)o1` [Example 124], in assay [1], the IC50 is 801 nM. At DGK ζ kinase, half-maximal inhibition (IC50) required 56.7 nM. Also, in the assay with primary human T-cells, the “Emax IL2 (% activation)” value amounted to 154 % activation and the EC50 is 278 nM.
